Reference: ChEMBL document CHEMBL1909046, “DrugMatrix in vitro pharmacology data”

Experiments:
Cannabinoid receptor 1 = Cannabinoid receptor 1 (Homo sapiens, UniProt P21554); assay type: cell membranes, Membrane; conditions: chem-1; note: in other assays of this panel Not Active means under 50% inhibition at 10 µM
Cytochrome P450 2E1 = Cytochrome P450 2E1 (Homo sapiens, UniProt P05181); conditions: bti-tn-5b1-4; note: in other assays of this panel Not Active means under 50% inhibition at 10 µM
[1] = DRUGMATRIX: Glutamate, Kainate radioligand binding (ligand: [3H] Kainic acid); assay type: cell membranes, Rattus norvegicus, Wistar, Brain, Membrane; conditions: Not Active = under 50% inhibition at 10 µM
Calcitonin receptor = target: T1, Calcitonin receptor (Homo sapiens, UniProt P30988); assay type: cell membranes, Membrane; conditions: t47d; note: in other assays of this panel Not Active means under 50% inhibition at 10 µM
T1 sequence (P30988 whole entry): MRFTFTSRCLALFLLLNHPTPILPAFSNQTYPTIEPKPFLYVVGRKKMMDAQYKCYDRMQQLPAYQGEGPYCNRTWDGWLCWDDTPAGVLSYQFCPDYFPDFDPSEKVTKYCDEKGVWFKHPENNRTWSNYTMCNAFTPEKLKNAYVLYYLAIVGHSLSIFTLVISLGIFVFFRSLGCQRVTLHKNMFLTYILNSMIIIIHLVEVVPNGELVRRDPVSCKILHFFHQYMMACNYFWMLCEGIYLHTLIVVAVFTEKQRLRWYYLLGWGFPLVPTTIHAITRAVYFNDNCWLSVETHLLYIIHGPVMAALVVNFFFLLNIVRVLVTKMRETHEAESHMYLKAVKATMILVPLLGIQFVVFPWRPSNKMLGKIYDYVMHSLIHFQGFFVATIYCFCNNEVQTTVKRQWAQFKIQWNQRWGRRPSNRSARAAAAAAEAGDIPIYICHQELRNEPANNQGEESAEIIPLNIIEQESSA

Substance-P receptor = Substance-P receptor (Homo sapiens, UniProt P25103); assay type: cell membranes, CHO, Membrane; conditions: cho; note: in other assays of this panel Not Active means under 50% inhibition at 10 µM
Chain of Substance-P receptor (P25103 whole entry): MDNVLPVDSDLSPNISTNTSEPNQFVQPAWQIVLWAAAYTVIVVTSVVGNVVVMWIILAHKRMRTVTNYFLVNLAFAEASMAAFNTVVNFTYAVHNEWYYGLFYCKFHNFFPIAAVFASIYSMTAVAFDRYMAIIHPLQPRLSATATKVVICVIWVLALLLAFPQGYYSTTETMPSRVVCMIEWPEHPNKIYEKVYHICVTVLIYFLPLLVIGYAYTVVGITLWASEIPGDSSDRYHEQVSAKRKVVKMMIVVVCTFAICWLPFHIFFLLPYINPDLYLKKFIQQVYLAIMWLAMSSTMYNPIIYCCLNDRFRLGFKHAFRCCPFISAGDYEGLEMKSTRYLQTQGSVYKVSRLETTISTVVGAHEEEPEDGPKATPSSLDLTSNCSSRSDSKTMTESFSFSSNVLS

[2] = target: Mitogen-activated protein kinase 1 (Homo sapiens, UniProt P28482); assay: DRUGMATRIX: Protein Serine/Threonine Kinase, ERK2 enzyme inhibition (substrate: Myelin Basic Protein); design: species or system Escherichia coli; conditions: Not Active = under 50% inhibition at 10 µM
Chain of Mitogen-activated protein kinase 1 (P28482 whole entry): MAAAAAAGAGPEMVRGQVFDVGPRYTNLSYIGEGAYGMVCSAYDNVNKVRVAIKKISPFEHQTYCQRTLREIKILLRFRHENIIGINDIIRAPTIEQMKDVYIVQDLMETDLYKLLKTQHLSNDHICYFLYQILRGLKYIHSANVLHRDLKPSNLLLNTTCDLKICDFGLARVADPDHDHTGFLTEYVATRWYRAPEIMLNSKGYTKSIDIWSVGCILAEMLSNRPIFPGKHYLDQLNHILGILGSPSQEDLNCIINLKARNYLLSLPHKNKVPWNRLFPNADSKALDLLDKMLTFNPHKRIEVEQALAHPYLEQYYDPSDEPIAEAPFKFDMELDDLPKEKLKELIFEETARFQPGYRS

Chain of Cytochrome P450 2E1 (P05181 whole entry): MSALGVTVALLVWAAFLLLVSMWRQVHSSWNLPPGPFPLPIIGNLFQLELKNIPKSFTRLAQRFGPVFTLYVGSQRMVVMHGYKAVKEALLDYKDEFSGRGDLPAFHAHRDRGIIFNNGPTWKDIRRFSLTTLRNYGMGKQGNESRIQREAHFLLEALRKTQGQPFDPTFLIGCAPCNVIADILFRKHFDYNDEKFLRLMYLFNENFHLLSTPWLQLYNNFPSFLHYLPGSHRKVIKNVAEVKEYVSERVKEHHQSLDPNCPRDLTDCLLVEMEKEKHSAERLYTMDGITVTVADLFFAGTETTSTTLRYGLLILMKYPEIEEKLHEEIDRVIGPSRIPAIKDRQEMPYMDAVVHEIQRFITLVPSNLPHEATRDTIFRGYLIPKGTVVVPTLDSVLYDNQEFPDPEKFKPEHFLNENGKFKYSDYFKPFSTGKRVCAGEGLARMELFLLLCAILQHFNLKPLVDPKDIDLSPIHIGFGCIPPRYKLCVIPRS
Chain of Cannabinoid receptor 1 (P21554 whole entry): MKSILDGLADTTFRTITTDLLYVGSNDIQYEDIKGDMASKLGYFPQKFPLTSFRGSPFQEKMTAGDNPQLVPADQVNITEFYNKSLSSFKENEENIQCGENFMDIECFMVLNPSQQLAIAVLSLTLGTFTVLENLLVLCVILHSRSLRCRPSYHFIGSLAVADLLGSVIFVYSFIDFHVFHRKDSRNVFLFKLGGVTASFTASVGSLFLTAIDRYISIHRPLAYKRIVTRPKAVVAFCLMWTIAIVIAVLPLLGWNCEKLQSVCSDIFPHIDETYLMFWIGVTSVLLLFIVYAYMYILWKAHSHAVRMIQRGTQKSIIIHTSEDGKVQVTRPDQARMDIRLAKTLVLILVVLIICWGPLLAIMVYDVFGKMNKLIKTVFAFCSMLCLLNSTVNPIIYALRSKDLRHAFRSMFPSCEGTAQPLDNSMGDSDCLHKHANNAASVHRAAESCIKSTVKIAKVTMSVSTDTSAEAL

CNNCc1ccc(C(=O)NC(C)C)cc1 [PROCARBAZINE]
Not Active: IC50 (Cannabinoid receptor 1) | IC50 (Cytochrome P450 2E1) | Ki (Cytochrome P450 2E1) | IC50 [1] | Ki [1] | IC50 (Calcitonin receptor) | IC50 (Substance-P receptor) | IC50 [2]

Cc1c(O)c(=O)ccn1C [DEFERIPRONE]
Not Active: IC50 (Cannabinoid receptor 1) | IC50 (Cytochrome P450 2E1) | Ki (Cytochrome P450 2E1) | IC50 [1] | Ki [1] | IC50 (Calcitonin receptor) | IC50 (Substance-P receptor) | IC50 [2]

CCn1cc(C(=O)O)c(=O)c2cc(F)c(N3CCNCC3)cc21 [NORFLOXACIN]
Not Active: IC50 (Cannabinoid receptor 1) | IC50 (Cytochrome P450 2E1) | Ki (Cytochrome P450 2E1) | IC50 [1] | Ki [1] | IC50 (Calcitonin receptor) | IC50 (Substance-P receptor) | IC50 [2]

CN(C)CCCN1c2ccccc2Sc2ccc(Cl)cc21 [CHLORPROMAZINE]
Not Active: IC50 (Cannabinoid receptor 1) | IC50 (Cytochrome P450 2E1) | Ki (Cytochrome P450 2E1) | IC50 [1] | Ki [1] | IC50 (Calcitonin receptor) | IC50 (Substance-P receptor) | IC50 [2]

CCOC(=O)C1=C(COCCN)NC(C)=C(C(=O)OC)C1c1ccccc1Cl (configuration not stated) [AMLODIPINE]
Not Active: IC50 (Cannabinoid receptor 1) | IC50 (Cytochrome P450 2E1) | Ki (Cytochrome P450 2E1) | IC50 [1] | Ki [1] | IC50 (Calcitonin receptor) | IC50 (Substance-P receptor) | IC50 [2]

CC1Cc2ccccc2N1NC(=O)c1ccc(Cl)c(S(N)(=O)=O)c1 (configuration not stated) [INDAPAMIDE]
Not Active: IC50 (Cannabinoid receptor 1) | IC50 (Cytochrome P450 2E1) | Ki (Cytochrome P450 2E1) | IC50 [1] | Ki [1] | IC50 (Calcitonin receptor) | IC50 (Substance-P receptor) | IC50 [2]

NCCCCCC(=O)O [AMINOCAPROIC ACID]
Not Active: IC50 (Cannabinoid receptor 1) | IC50 (Cytochrome P450 2E1) | Ki (Cytochrome P450 2E1) | IC50 [1] | Ki [1] | IC50 (Calcitonin receptor) | IC50 (Substance-P receptor) | IC50 [2]

c1ccc(Nc2ccc(Nc3ccccc3)cc2)cc1
Not Active: IC50 (Cannabinoid receptor 1) | IC50 (Cytochrome P450 2E1) | Ki (Cytochrome P450 2E1) | IC50 [1] | Ki [1] | IC50 (Calcitonin receptor) | IC50 (Substance-P receptor) | IC50 [2]

Cc1onc(-c2ccccc2Cl)c1C(=O)N[C@@H]1C(=O)N2[C@@H]1SC(C)(C)[C@@H]2C(=O)O [CLOXACILLIN]
Not Active: IC50 (Cannabinoid receptor 1) | IC50 (Cytochrome P450 2E1) | Ki (Cytochrome P450 2E1) | IC50 [1] | Ki [1] | IC50 (Calcitonin receptor) | IC50 (Substance-P receptor) | IC50 [2]

CC(O)CO (configuration not stated) [PROPYLENE GLYCOL]
Not Active: IC50 (Cannabinoid receptor 1) | IC50 (Cytochrome P450 2E1) | Ki (Cytochrome P450 2E1) | IC50 [1] | Ki [1] | IC50 (Calcitonin receptor) | IC50 (Substance-P receptor) | IC50 [2]

CC(C)C(Br)C(=O)NC(N)=O (configuration not stated) [BROMISOVALUM]
Not Active: IC50 (Cannabinoid receptor 1) | IC50 (Cytochrome P450 2E1) | Ki (Cytochrome P450 2E1) | IC50 [1] | Ki [1] | IC50 (Calcitonin receptor) | IC50 (Substance-P receptor) | IC50 [2]

CCC(C)n1ncn(-c2ccc(N3CCN(c4ccc(OCC5COC(Cn6cncn6)(c6ccc(Cl)cc6Cl)O5)cc4)CC3)cc2)c1=O (configuration not stated) [ITRACONAZOLE]
Not Active: IC50 (Cannabinoid receptor 1) | IC50 (Cytochrome P450 2E1) | Ki (Cytochrome P450 2E1) | IC50 [1] | Ki [1] | IC50 (Calcitonin receptor) | IC50 (Substance-P receptor) | IC50 [2]

C[C@](N)(Cc1ccc(O)c(O)c1)C(=O)O [METHYLDOPA]
Not Active: IC50 (Cannabinoid receptor 1) | IC50 (Cytochrome P450 2E1) | Ki (Cytochrome P450 2E1) | IC50 [1] | Ki [1] | IC50 (Calcitonin receptor) | IC50 (Substance-P receptor) | IC50 [2]

Cc1ccccc1N1C(=O)c2cc(S(N)(=O)=O)c(Cl)cc2NC1C (configuration not stated) [METOLAZONE]
Not Active: IC50 (Cannabinoid receptor 1) | IC50 (Cytochrome P450 2E1) | Ki (Cytochrome P450 2E1) | IC50 [1] | Ki [1] | IC50 (Calcitonin receptor) | IC50 (Substance-P receptor) | IC50 [2]

Nc1nc2c(ncn2CCC(CO)CO)c(=O)[nH]1 [PENCICLOVIR]
Not Active: IC50 (Cannabinoid receptor 1) | IC50 (Cytochrome P450 2E1) | Ki (Cytochrome P450 2E1) | IC50 [1] | Ki [1] | IC50 (Calcitonin receptor) | IC50 (Substance-P receptor) | IC50 [2]

C[C@]12CC[C@@H]3c4ccc(O)cc4CC[C@H]3[C@@H]1CCC2=O [ESTRONE]
Not Active: IC50 (Cannabinoid receptor 1) | IC50 [1] | Ki [1] | IC50 (Calcitonin receptor) | IC50 (Substance-P receptor) | IC50 [2]

NC1=NC(=O)C(c2ccccc2)O1 (configuration not stated) [PEMOLINE]
Not Active: IC50 (Cannabinoid receptor 1) | IC50 (Cytochrome P450 2E1) | Ki (Cytochrome P450 2E1) | IC50 [1] | Ki [1] | IC50 (Calcitonin receptor) | IC50 (Substance-P receptor) | IC50 [2]

CC1(C)S[C@@H]2[C@H](NC(=O)Cc3ccccc3)C(=O)N2[C@H]1C(=O)O [PENICILLIN G]
Not Active: IC50 (Cannabinoid receptor 1) | IC50 [1] | Ki [1] | IC50 (Calcitonin receptor) | IC50 (Substance-P receptor) | IC50 [2]

CN(C)c1nc(N(C)C)nc(N(C)C)n1 [ALTRETAMINE]
Not Active: IC50 (Cannabinoid receptor 1) | IC50 [1] | Ki [1] | IC50 (Calcitonin receptor) | IC50 (Substance-P receptor) | IC50 [2]

N=C(N)NCCN1CCCCCCC1 [GUANETHIDINE]
Not Active: IC50 (Cannabinoid receptor 1) | IC50 [1] | Ki [1] | IC50 (Calcitonin receptor) | IC50 (Substance-P receptor) | IC50 [2]
